From paper PMC9124820, “In vitro evaluation of fenfluramine and norfenfluramine as victims of drug interactions” (Pharmacology Research & Perspectives, 2022)

Test system: other rCYP450s
Assay: Reaction phenotyping, other rCYP450s of the panel (not given)
Format: in vitro ADME, human
Description: For FFA and nFFA reaction phenotyping experiments, LC‐MS/MS experiments were performed using an API 4000 QTRAP or QTRAP 5500 mass spectrometer (SCIEX) with positive electrospray ionization. Chromatography was performed using an Atlantis dC18 analytical column (100 × 2.1 mm, 5 µm; Waters Corporation). Mobile phases were 0.2% v/v formic acid in water and 0.2% v/v formic acid in methanol. FFA and nFFA were eluted at a flow rate of 0.5 mL/min with a linear gradient of 40%−95% methanol from 0.20−2.1 min. The mass transitions monitored were 232.0>109.0 for FFA, 204.0>159.0 for nFFA, 348.0>330.0 for 1’‐hydroxymidazolam‐d4 internal standard (FFA reaction phenotyping), and 262.0>244.0 for hydroxybupropion‐d6 internal standard (nFFA reaction phenotyping). Analyst Instrument Control and Data Processing software (v. 1.6.1) was used for collecting and integrating data (SCIEX). Calibration curves ranging from 1.25 µM−0.01 µM were used to quantify nFFA. Relative quantitation was used to approximate the amount of FFA test material used.
Methods used to evaluate the role of CYP450s in the metabolism of FFA have been described.[22], [23], [24] To determine whether FFA and nFFA were substrates for specific CYP450s, either FFA (1 and 10 μM) or nFFA (0.1 and 1 μM) was incubated via a Tecan Liquid Handling System (Tecan Life Sciences, Männedorf, Switzerland) in duplicate with 25 pmol of rCYP1A2, rCYP2B6, rCYP2C8, rCYP2C9, rCYP2C19, rCYP2D6, or rCYP3A4, and incubation at 37°C. The 200‐μL incubation mixtures contained potassium phosphate buffer (50 mM, pH 7.4), MgCl2 (3 mM), and EDTA (1 mM, pH 7.4), and an NADPH‐generating system. Incubations of FFA with control bactosomes and membranes containing human NADPH‐CYP450 oxidoreductase, but not human CYP450 (reductase control), served as negative controls. FFA or nFFA was added to the incubation mixtures in water (1% v/v). […] Supernatant fractions were analyzed by LC‐MS/MS.

Structure (SMILES)	FFA loss (1 μM FFA, rCYP450s other than rCYP2D6, rCYP2C19, rCYP1A2) [%]	substrate loss (10 μM FFA, rCYP450s other than rCYP2D6, rCYP2C19, rCYP1A2, rCYP2B6) [%]	contribution to nFFA metabolism (nFFA 0.1 μM and 1 μM, enzymes other than rCYP1A2, rCYP2B6, rCYP2C19, rCYP2D6)
CCNC(C)Cc1cccc(C(F)(F)F)c1 (racemic) [FFA, (RS)‐ethyl (α‐methyl‐3‐trifluoromethylphenethyl)amine]	< 10	< 15	
CC(N)Cc1cccc(C(F)(F)F)c1.Cl (stereo not drawn) [nFFA, 1‐(3‐(trifluoromethyl)phenyl)propan‐2‐amine hydrochloride]			smaller contributions
